# Laboratory results taken from patent US10370387B2, “Tricyclic fused thiophene derivatives as JAK inhibitors” (Incyte Corporation, priority 2012, dated 2019).
# Test system: human JAK1
# Test: In vitro JAK kinase assay (HTRF, phosphorylation of biotinylated peptide), JAK1
# Type: biochemical
# Conditions: ratio of JAK2 IC50 to JAK1 IC50, 1 mM ATP
# Experimental: Compounds herein were tested for inhibitory activity of JAK targets according to the following in vitro assay described in Park et al., Analytical Biochemistry 1999, 269, 94-104. The catalytic domains of human JAK1 (a.a. 837-1142), JAK2 (a.a. 828-1132) and JAK3 (a.a. 781-1124) were expressed using baculovirus in insect cells and purified. The catalytic activity of JAK1, JAK2 or JAK3 was assayed by measuring the phosphorylation of a biotinylated peptide. The phosphorylated peptide was detected by homogenous time resolved fluorescence (HTRF). IC50s of compounds were measured for each kinase in the 40 μL reactions that contain the enzyme, ATP and 500 nM peptide in 50 mM Tris (pH 7.8) buffer with 100 mM NaCl, 5 mM DTT, and 0.1 mg/mL (0.01%) BSA. For the 1 mM IC50 measurements, ATP concentration in the reactions was 1 mM. Reactions were carried out at room temperature for 1 hour and then stopped with 20 μL 45 mM EDTA, 300 nM SA-APC, 6 nM Eu-Py20 in assay buffer (Perkin Elmer, Boston, Mass.). Binding to the Europium labeled antibody took place for 40 minutes and HTRF signal was measured on a PHERA star plate reader (BMG, Cary, N.C.). The Example compounds were each tested in the Example A assay (see Table 1 for data for the compounds of the examples as tested by the assay of Example A at 1 mM ATP).
row,Molecule,JAK2/JAK1
1,"C[C@@H](O)c1nc2cnc3ccsc3c2n1[C@H]1CCN(C(=O)CC#N)C1 [Example 63, 3-((3S)-3-{2-[(1R)-1-Hydroxyethyl]-1H-imidazo[4,5-d]thieno[3,2-b]pyridin-1-yl}pyrrolidin-1-yl)-3-oxopropanenitrile]",>6
2,"C[C@@H](O)c1nc2cnc3ccsc3c2n1[C@H]1CCN(CCCC(F)(F)F)C1 [Example 64, (1R)-1-{1-[(3S)-1-(4,4,4-Trifluorobutyl)pyrrolidin-3-yl]-1H-imidazo[4,5-d]thieno[3,2-b]pyridin-2-yl}ethanol]",>10
3,"C[C@@H](O)c1nc2cnc3ccsc3c2n1[C@H]1CCN(CCCC#N)C1 [Example 65, 4-((3S)-3-{2-[(1R)-1-Hydroxyethyl]-1H-imidazo[4,5-d]thieno[3,2-b]pyridin-1-yl}pyrrolidin-1-yl)butanenitrile]",>10
4,"C[C@@H](O)c1nc2cnc3ccsc3c2n1[C@H]1CCN(CCCCC#N)C1 [Example 66, 5-((3S)-3-{2-[(1R)-1-Hydroxyethyl]-1H-imidazo[4,5-d]thieno[3,2-b]pyridin-1-yl}pyrrolidin-1-yl)pentanenitrile]",>10
5,"C[C@@H](O)c1nc2cnc3ccsc3c2n1[C@H]1CC[C@H](CC#N)[C@H](N)C1 [Example 67, ((1R,2R,4S)-2-Amino-4-{2-[(1R)-1-hydroxyethyl]-1H-imidazo[4,5-d]thieno[3,2-b]pyridin-1-yl}cyclohexyl)acetonitrile]",>10
6,"CC(N)c1nc2cnc3ccsc3c2n1[C@H]1CC[C@H](CC#N)OC1.O=C(O)C(F)(F)F (stereo partly drawn) [Example 68, {(2R,5S)-5-[2-(1-Aminoethyl)-1H-imidazo[4,5-d]thieno[3,2-b]pyridin-1-yl]tetrahydro-2H-pyran-2-yl}acetonitrile trifluoroacetate]",>10
7,"CC(=O)NC(C)c1nc2cnc3ccsc3c2n1[C@H]1CC[C@H](CC#N)OC1 (stereo partly drawn) [Example 69, N-(1-{1-[(3S,6R)-6-(Cyanomethyl)tetrahydro-2H-pyran-3-yl]-1H-imidazo[4,5-d]thieno[3,2-b]pyridin-2-yl}ethyl) acetamide]",>10
8,"CNC(C)c1nc2cnc3ccsc3c2n1[C@H]1CC[C@H](CC#N)OC1 (stereo partly drawn) [Example 70, ((2R,5S)-5-{2-[1-(Methylamino)ethyl]-1H-imidazo[4,5-d]thieno[3,2-b]pyridin-1-yl}tetrahydro-2H-pyran-2-yl)acetonitrile]",>10
9,"CC(F)c1nc2cnc3ccsc3c2n1[C@H]1CC[C@H](CC#N)OC1 (stereo partly drawn) [Example 71, {(2R,5S)-5-[2-(1-Fluoroethyl)-1H-imidazo[4,5-d]thieno[3,2-b]pyridin-1-yl]tetrahydro-2H-pyran-2-yl}acetonitrile]",>10
10,"N#CCc1nc2cnc3ccsc3c2n1[C@H]1CC[C@H](CC#N)OC1 [Example 73, {(2R,5S)-5-[2-(Cyanomethyl)-1H-imidazo[4,5-d]thieno[3,2-b]pyridin-1-yl]tetrahydro-2H-pyran-2-yl}acetonitrile]",>10
11,"N#CCc1nc2cnc3ccsc3c2n1[C@H]1CC[C@@H](CC#N)OC1 [Example 74, {(2S,5S)-5-[2-(Cyanomethyl)-1H-imidazo[4,5-d]thieno[3,2-b]pyridin-1-yl]tetrahydro-2H-pyran-2-yl}acetonitrile]",>10
12,"C[C@@H](O)c1nc2cnc3ccsc3c2n1[C@H]1CC[C@H](CNS(C)(=O)=O)OC1 [Example 75, N-[((2R,5S)-5-{2-[(1R)-1-Hydroxyethyl]-1H-imidazo[4,5-d]thieno[3,2-b]pyridin-1-yl}tetrahydro-2H-pyran-2-yl)methyl]methanesulfonamide]",>10
13,"CC(C)OC(=O)NC[C@H]1CC[C@H](n2c([C@@H](C)O)nc3cnc4ccsc4c32)CO1 [Example 76, Isopropyl [((2R,5S)-5-{2-[(1R)-1-hydroxyethyl]-1H-imidazo[4,5-d]thieno[3,2-b]pyridin-1-yl}tetrahydro-2H-pyran-2-yl)methyl]carbamate]",>10
14,"CC(=O)NC[C@H]1CC[C@H](n2c([C@@H](C)O)nc3cnc4ccsc4c32)CC1 [Example 79, N-[(trans-4-{2-[(1R)-1-Hydroxyethyl]-1H-imidazo[4,5-d]thieno[3,2-b]pyridin-1-yl}cyclohexyl)methyl]acetamide]",>10
15,"((1R,2R,4S)-2-Hydroxy-4-{2-[(1R)-1-hydroxyethyl]-1H-imidazo[4,5-d]thieno[3,2-b]pyridin-1-yl}cyclohexyl)acetonitrile and ((1S,2S,4R)-2-hydroxy-4-{2-[(1R)-1-hydroxyethyl]-1H-imidazo[4,5-d]thieno[3,2-b]pyridin-1-yl}cyclohexyl)acetonitrile [36 (first peak)]",>10
16,"((1R,2R,4S)-2-Hydroxy-4-{2-[(1R)-1-hydroxyethyl]-1H-imidazo[4,5-d]thieno[3,2-b]pyridin-1-yl}cyclohexyl)acetonitrile and ((1S,2S,4R)-2-hydroxy-4-{2-[(1R)-1-hydroxyethyl]-1H-imidazo[4,5-d]thieno[3,2-b]pyridin-1-yl}cyclohexyl)acetonitrile [36 (second peak)]",>10
17,"((1R,2S,4S)-2-Hydroxy-4-{2-[(1R)-1-hydroxyethyl]-1H-imidazo[4,5-d]thieno[3,2-b]pyridin-1-yl}cyclohexyl)acetonitrile trifluoacetate and ((1S,2R,4R)-2-hydroxy-4-{2-[(1R)-1-hydroxyethyl]-1H-imidazo[4,5-d]thieno[3,2-b]pyridin-1-yl}cyclohexyl)acetonitrile trifluoacetate [37 (first peak)]",>10

# Results, then the molecule that gave them:
row,JAK2/JAK1,Molecule
1,>10,"C[C@@H](O)c1nc2cnc3ccsc3c2n1[C@H]1CC[C@H](CNS(C)(=O)=O)CC1 [Example 80, N-[(trans-4-{2-[(1R)-1-Hydroxyethyl]-1H-imidazo[4,5-d]thieno[3,2-b]pyridin-1-yl}cyclohexyl)methyl]methanesulfonamide]"
2,>10,"C[C@@H](O)c1nc2cnc3ccsc3c2n1[C@H]1CC[C@H](CNC(=O)N(C)C)CC1 [Example 81, N′-[(trans-4-{2-[(1R)-1-Hydroxyethyl]-1H-imidazo[4,5-d]thieno[3,2-b]pyridin-1-yl}cyclohexyl)methyl]-N,N-dimethylurea]"
3,>10,"CCOC(=O)NC[C@H]1CC[C@H](n2c([C@@H](C)O)nc3cnc4ccsc4c32)CC1 [Example 82, Ethyl [(trans-4-{2-[(1R)-1-hydroxyethyl]-1H-imidazo[4,5-d]thieno[3,2-b]pyridin-1-yl}cyclohexyl)methyl]carbamate]"
4,>10,"CCCOC(=O)NC[C@H]1CC[C@H](n2c([C@@H](C)O)nc3cnc4ccsc4c32)CC1 [Example 83, Propyl [(trans-4-{2-[(1R)-1-hydroxyethyl]-1H-imidazo[4,5-d]thieno[3,2-b]pyridin-1-yl}cyclohexyl)methyl]carbamate]"
5,>10,"CC(C)OC(=O)NC[C@H]1CC[C@H](n2c([C@@H](C)O)nc3cnc4ccsc4c32)CC1 [Example 84, Isopropyl [(trans-4-{2-[(1R)-1-hydroxyethyl]-1H-imidazo[4,5-d]thieno[3,2-b]pyridin-1-yl}cyclohexyl)methyl]carbamate]"
6,>10,"C[C@@H](O)c1nc2cnc3ccsc3c2n1[C@H]1CC[C@H](CNC(=O)OC2CCOC2)CC1 (stereo partly drawn) [Example 85, Tetrahydrofuran-3-yl [(trans-4-{2-[(1R)-1-hydroxyethyl]-1H-imidazo[4,5-d]thieno[3,2-b]pyridin-1-yl}cyclohexyl)methyl]carbamate]"
7,>10,"COC(=O)NC[C@H]1CC[C@H](n2c(CC#N)nc3cnc4ccsc4c32)CC1 [Example 86, Methyl ({trans-4-[2-(cyanomethyl)-1H-imidazo[4,5-d]thieno[3,2-b]pyridin-1-yl]cyclohexyl}methyl)carbamate]"
8,>10,"CCOC(=O)NC[C@H]1CC[C@H](n2c(CC#N)nc3cnc4ccsc4c32)CC1 [Example 87, Ethyl ({trans-4-[2-(cyanomethyl)-1H-imidazo[4,5-d]thieno[3,2-b]pyridin-1-yl]cyclohexyl}methyl)carbamate]"
9,>10,"CC(C)OC(=O)NC[C@H]1CC[C@H](n2c(CC#N)nc3cnc4ccsc4c32)CC1 [Example 88, Isopropyl ({trans-4-[2-(cyanomethyl)-1H-imidazo[4,5-d]thieno[3,2-b]pyridin-1-yl]cyclohexyl}methyl)carbamate]"
10,>10,"CCC(=O)NC[C@H]1CC[C@H](n2c(CC#N)nc3cnc4ccsc4c32)CC1 [Example 89, N-({trans-4-[2-(Cyanomethyl)-1H-imidazo[4,5-d]thieno[3,2-b]pyridin-1-yl]cyclohexyl}methyl)propanamide]"
11,>10,"N#CCc1nc2cnc3ccsc3c2n1[C@H]1CC[C@H](CC#N)CC1 [Example 90, {1-[trans-4-(Cyanomethyl)cyclohexyl]-1H-imidazo[4,5-d]thieno[3,2-b]pyridin-2-yl}acetonitrile]"
12,>10,"N#CC[C@H]1CC[C@H](n2c(CO)nc3cnc4ccsc4c32)CO1 [Example 91, {(2R,5S)-5-[2-(Hydroxymethyl)-1H-imidazo[4,5-d]thieno[3,2-b]pyridin-1-yl]tetrahydro-2H-pyran-2-yl}acetonitrile]"
